These results are taken from patent US20140011773A1, “Pro-drug Compounds” (Proximagen Limited, priority 2012, published 2014).

Data set [1] has as its system unique stereo-selective site in rat brains. Conditions: rat brain; cited from earlier work.
Data set [2] concerns unique stereo-selective site in human brains. Conditions: human brain; cited from earlier work.
Data set [3] relates to high K+ evoked CSD. Particulars: rats; cited from earlier work.
In data set [4] the test system is high K+ evoked CSD. Particulars: cats; cited from earlier work.
Data set [5] is described as follows: Pharmacokinetics: plasma levels after oral dosing to rats. Type of data set: in vivo. Conditions: male, Sprague Dawley, 6.1 mg/kg, rat, 6.10 mg/kg PO, read-out: Plasma level of Example 2. As for the experimental part:
(§1) Example prodrugs were dosed either intravenously or orally to fasted male Sprague Dawley rats. The rats underwent surgery for jugular vein cannulation 48 hrs prior to dosing. Following dosing, 0.25 mL blood samples were taken via the cannulae at 0, 5, 10, 20, 30, 45, 60, 120, 240 & 360 minutes in EDTA coated tubes. Tubes were spun at 13,000 rpm for 4 minutes and 100 ul of supernatant taken immediately and stored at −80° C. prior to analysis. Plasma samples were analysed by LC-MS/MS following extraction by protein precipitation, and levels of parent prodrug and tonabersat were measured by MRM (Multiple Reaction Monitoring) analysis against an extracted calibration curve of plasma samples spiked with the Example prodrug and tonabersat.
Example 2 was dosed according to this protocol at 6.10 mg/kg PO. […] Plasma levels of tonabersat were determined to be 63 ng/mL at 5 min and 900 ng/mL at 6 hrs clearly showing conversion of the prodrug to tonabersat over this timecourse following oral dosing.

Data set [6] can be described thus: Pharmacokinetics: plasma levels after intravenous dosing to rats. The data set is classed as in vivo. Particulars: male, Sprague Dawley, rat, 0.95 mg/kg IV, read-out: Plasma level of Example 2. As for the experimental part: as §1
Example 2 was dosed according to this protocol at 0.95 mg/kg IV. […] Plasma levels of tonabersat were determined to be 130 ng/mL at 5 min and 115 ng/mL at 6 hrs clearly showing conversion of the prodrug to tonabersat over this timecourse following intravenous dosing.

Each structure is given as a SMILES string. Where a name gives a salt, the structure may show the parent alone. Read-outs that look alike come from different tables or passages of the source.

As for `CC(=O)c1ccc2c(c1)[C@H](NC(=O)c1ccc(F)c(Cl)c1)[C@H](O)C(C)(C)O2` [Tonabersat], the binding affinity entry in data set [1] is “binds selectively and with high affinity”; in data set [2], “binds selectively and with high affinity”. Moreover, the “inhibition of high K+ evoked CSD” value in data set [3] and in data set [4] was “inhibits high K+ evoked CSD” each time.

For `CC(=O)c1ccc2c(c1)[C@H](NC(=O)c1ccc(F)c(Cl)c1)[C@H](OC(=O)CN(C)C)C(C)(C)O2` [Example 2, (3S,4S)-6-Acetyl-4-[(3-chloro-4-fluorobenzene)amido]-2,2-dimethyl-3,4-dihydro-2H-1-benzopyran-3-yl 2-(dimethylamino)acetate hydrochloride], the concentration at 5 min in data set [5] (at 5 min) came out at 38 ng/mL; in data set [6] (at 5 min), 730 ng/mL. For the same molecule, the concentration at 6 h in data set [5] (at 6 hrs) and in data set [6] (at 6 hrs) was less than 5 ng/mL each time.
